From US5563163A, “2-saccharinylmethyl heterocyclic carboxylates useful as proteolytic enzyme inhibitors and compositions and method of use thereof” (Sterling Winthrop, Inc., priority 1995, dated 1996)
Where a name gives a salt, the structure may show the parent alone.

Biological target: T1, human leukocyte elastase (HLE) (Homo sapiens, UniProt P08246)
T1 sequence (P08246 30-267): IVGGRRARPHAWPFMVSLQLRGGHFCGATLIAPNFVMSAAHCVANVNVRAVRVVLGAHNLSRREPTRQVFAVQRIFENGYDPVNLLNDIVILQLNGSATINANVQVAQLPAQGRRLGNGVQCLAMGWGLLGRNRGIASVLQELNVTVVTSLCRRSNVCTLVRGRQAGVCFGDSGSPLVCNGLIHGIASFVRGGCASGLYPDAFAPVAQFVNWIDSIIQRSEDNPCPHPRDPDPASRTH
Experiment: Inhibition of human leukocyte elastase (HLE): rate of inactivation kon and inhibition constant Ki* (= koff/kon)
Type: biochemical
Settings: for kinact/KI: "Kon × 10^-3": value is Kon multiplied by 10^-3; for Ki: Ki* calculated as koff/kon, not a truly reversible Ki
Protocol: Measurement of the inhibition constant, Ki, of a HLE-inhibitor complex has been described for "truly reversible inhibition constants" usually concerning competitive inhibitors. [Cha, Biochem. Pharmacol., 24, 2177-2185 (1975)]. […] Thus, instead of measuring a Ki, a Ki * is calculated which is defined as the ratio of the koff /kon, the rate of reactivation of the enzyme to the rate of inactivation of the enzyme. The values of koff and kon are measured and Ki * is then calculated. The rate of inactivation, kon, of enzymatic activity was determined for the compounds tested by measuring the enzyme activity of an aliquot of the respective enzyme as a function of time after addition of the test compound. […] The rate of inactivation is then equal to [formula] where [I] is the concentration of the inhibiting compound. The reactivation constant, koff, is similarly determined, and the inhibition constant, Ki *, is then calculated as Ki *=koff /kon The values obtained for kon and Ki * for specific substituted saccharin derivatives are shown in TABLE 3, the compounds being identified by the Example numbers above where their preparations are described.

kinact/KI [M⁻¹ s⁻¹] | Ki [nM] | SMILES
131000 | 0.076 | COc1cc(C(C)C)c2c(c1)S(=O)(=O)N(COC(=O)c1sccc1Cl)C2=O [Example 9, 4-isopropyl-6-methoxy-2-saccharinylmethyl 3-chlorothiophene-2-carboxylate]
28000 | 0.36 | COc1cc(C(C)C)c2c(c1)S(=O)(=O)N(COC(=O)c1c(C)noc1C)C2=O [Example 12, 4-isopropyl-6-methoxy-2-saccharinylmethyl 3,5-dimethylisoxazole-4-carboxylate]
6000 | 1.5 | COc1cc(C(C)C)c2c(c1)S(=O)(=O)N(COC(=O)c1c(C)c3cc(Cl)ccc3n1C)C2=O [Example 15, 4-isopropyl-6-methoxy-2-saccharinylmethyl 1,3-dimethyl-5-chloro-indole-2-carboxylate]
63000 | 0.16 | COc1cc(C(C)C)c2c(c1)S(=O)(=O)N(COC(=O)c1cc(C)no1)C2=O [Example 10, 4-isopropyl-6-methoxy-2-saccharinylmethyl 3-methylisoxazole-5-carboxylate]
2.3e+06 |  | CC(C)c1cccc2c1C(=O)N(COC(=O)c1c(Cl)cncc1Cl)S2(=O)=O [Example 4, 4-isopropyl-2-saccharinylmethyl 3,5-dichloro-pyridine-4-carboxylate hydrochloride]
1.5e+06 | 0.015 | CC(C)c1cccc2c1C(=O)N(COC(=O)c1c(Cl)cnc(OCCN3CCOCC3)c1Cl)S2(=O)=O [Example 3, 4-(isopropyl]-2-saccharinylmethyl 3.5-dichloro-2-[2-(4-morpholinyl)ethoxy]pyridine-4-carboxylate hydrochloride]
500000 | 0.02 | COc1cc(C(C)C)c2c(c1)S(=O)(=O)N(COC(=O)c1c(C)ccnc1C)C2=O [Example 14, 4-isopropyl-6-methoxy-2-saccharinylmethyl 2,4-dimethylpyridine-3 carboxylate]
455000 | 0.022 | COc1cc(C(C)C)c2c(c1)S(=O)(=O)N(COC(=O)c1c(Cl)cnc(OCCN(C)C)c1Cl)C2=O [Example 5, 4-isopropyl-6-methoxy-2-saccharinylmethyl 3,5-dichloro-2-[2-(dimethylamino)ethoxy]pyridine-4-carboxylate]
625000 | 0.016 | COc1cc(C(C)C)c2c(c1)S(=O)(=O)N(COC(=O)c1sccc1C)C2=O [Example 7, 4-isopropyl-6-methoxy-2-saccharinylmethyl 3-methylthiophene-2-carboxylate]
100000 | 0.1 | COc1cc(C(C)C)c2c(c1)S(=O)(=O)N(COC(=O)c1cccs1)C2=O [Example 8, 4-isopropyl-6-methoxy-2-saccharinylmethyl thiophene-2-carboxylate]
47600 | 0.21 | COc1cc(C(C)C)c2c(c1)S(=O)(=O)N(COC(=O)c1ccsc1)C2=O [Example 6, 4-isopropyl-6-methoxy-2-saccharinylmethyl thiophene-3-carboxylate]
1200 | 40 | O=C(OCN1C(=O)c2ccccc2S1(=O)=O)c1ccncc1 [Example 1, 2-saccharinylmethyl pyridine-4-carboxylate]
50000 | 0.2 | COc1cc(C(C)C)c2c(c1)S(=O)(=O)N(COC(=O)C1CCC(=O)N1)C2=O (centres unmarked) [Example 11, 4-isopropyl-6-methoxy-2-saccharinylmethyl-2-pyrrolidine-5-carboxylate]
9000 | 1.1 | COc1cc(C(C)C)c2c(c1)S(=O)(=O)N(COC(=O)c1c(C)nn(-c3ccccc3)c1C)C2=O [Example 13, 4-isopropyl.-6-methoxy-2-saccharinylmethyl 3,5-dimethyl-1-phenylpyrazole-4-carboxylate]
11000 | 10 | O=C(OCN1C(=O)c2ccccc2S1(=O)=O)c1c(Cl)cncc1Cl [Example 2, 2-saccharinylmethyl 3,5-dichloropyridine-4-carboxylate]
